Measurements as given in patent US11230535B2, “CFTR regulators and methods of use thereof” (THE REGENTS OF THE UNIVERSITY OF CALIFORNIA, priority 2015, dated 2022).
Entries after “also recorded” stand apart in the source; their conditions may differ.

Columns and labels:
[1] = tested on: mice; assay: In vivo whole-gut transit time; design: species or system mouse
Description: (§1) Whole-gut transit time was determined using an orally administered marker (200 μL, 5% Evans Blue, 5% gum Arabic) and measuring the time of its appearance in stool. Mice were administered loperamide and CFTRact-J027 (10 mg/kg) or vehicle intraperitoneally at zero time. For ex vivo contractility measurements, mice were euthanized by avertin overdose (200 mg/kg, 2,2,2-tribromethanol, Sigma-Aldrich) and ileum and colon segments of ˜2 cm length were isolated and washed with Krebs-Henseleit buffer. The ends of the intestinal segments were tied, connected to a force transducer (Biopac Systems, Goleta, Calif., USA) and tissues were transferred to an organ chamber (Biopac Systems) containing Krebs-Henseleit buffer at 37° C. aerated with 95% O2, 5% CO2. Ileum and colon were stabilized for 60 min with resting tensions of 0.5 and 0.2 g respectively, and solutions were changed every 15 min. Effects of CFTRact-J027 on baseline and loperamide-suppressed isometric intestinal contractions were recorded.
(§2) In vivo intestinal transit and ex vivo intestinal contractility. Whole-gut transit time was determined using an orally administered marker (200 μL, 5% Evans Blue, 5% gum Arabic) and measuring the time of its appearance in stool. […] Effects of CFTRact-J027 on baseline and loperamide-suppressed isometric intestinal contractions were recorded.

[2] = tested on: isolated mouse ileum and colon strips; assay: Ex vivo contractility of isolated ileum and colon strips; details: alone or with 10 μM loperamide
Description: as §1, §2

[3] = tested on: closed mid-jejunal loops; assay: In vivo intestinal fluid secretion in closed mid-jejunal loops; design: species or system mouse; details: 90 min
Description: Mice (wildtype or CF) were given access to 5% dextrose water but not solid food for 24 h before experiments. Mice were anesthetized with isoflurane and body temperature was maintained during surgery at 36-38° C. using a heating pad. A small abdominal incision was made to expose the small intestine, and closed mid-jejunal loops (length 2-3 cm) were isolated by sutures. Loops were injected with 100 μL vehicle alone or 100 μg CFTRact-J027 in vehicle. The abdominal incision was closed with sutures, and mice were allowed to recover from anesthesia. Intestinal loops were removed at 90 min and loop length and weight were measured to quantify fluid secretion. Intestinal absorption was measured in CF mice (to prevent secretion) as described above, except that the loops were removed at 0 or 30 min. Absorption was calculated as 1−(loop weight at 0 min−loop weight at 30 min)/loop weight at 0 min.
In vivo intestinal secretion and absorption. Mice (wildtype or CF) were given access to 5% dextrose water but not solid food for 24 h before experiments. […] Intestinal loops were removed at 90 min and loop length and weight were measured to quantify fluid secretion. Intestinal absorption was measured in CF mice (to prevent secretion) as described above, except that the loops were removed at 0 or 30 min. Absorption was calculated as 1−(loop weight at 0 min−loop weight at 30 min)/loop weight at 0 min.

[4] = tested on: mouse liver microsomes; assay: In vitro metabolic stability in mouse liver microsomes; type: in vitro ADME
Description: (§3) CFTRact-J027 (5 μM) was incubated for specified times at 37° C. with mouse liver microsomes (1 mg protein/ml; Sigma-Aldrich) in potassium phosphate buffer (100 mM) containing 1 mM NADPH, as described. The mixture was then chilled on ice, and 0.5 ml of ice-cold ethyl acetate was added. Samples were centrifuged for 15 min at 3000 rpm, the supernatant evaporated to dryness, and the residue was dissolved in 100 μL mobile phase (acetonitrile:water, 3:1) for LC/MS and assayed as described above.
as §3, with “In vitro metabolic stability. CFTRact-J027” for “CFTRact-J027”

[5] = 7-day oral toxicity study in mice (blood count, serum chemistry, body weight, lung wet/dry weight); type: in vivo, mouse
Excerpt: Chronic administration and toxicity studies.

[6] = tested on: loperamide-treated mice; assay: Loperamide-induced mouse model of constipation (3-h stool weight, pellet number, water content)
[7] = Chemical stability in ophthalmic vehicle (LC/MS); type: physicochemical; details: 100 μM, 0.3% CMC in Ringer's solution, 24 h at 40° C.
[8] = 10 mg/kg oral once per day, 7 days

## Nc1ccc([N+](=O)[O-])cc1-c1nc2ccccc2n(Cc2ccccc2)c1=O [CFTRact-J027, 3-(2-amino-5-nitrophenyl)-1-benzylquinoxalin-2(1H)-one]
[1]; 10 mg/kg ip, loperamide-treated wild-type mice
  whole-gut transit time: normalized
[1]; CF mice
  whole-gut transit time in cystic fibrosis mice: no effect
[2]
  intestinal contraction: no effect
[3]; 100 μg per loop, wild-type mice
  increase in loop weight/length ratio: 140%
[3]; CF mice
  loop fluid secretion in cystic fibrosis mice: without effect
[4]; 5 μM, mouse liver microsomes, NADPH
  elimination half-life in microsomes: ~21 min
[4]; 60 min
  original compound remaining at 60 min: 7%
[4]; mouse liver microsomes, NADPH
  hepatic microsomal metabolism, in words: rapid hepatic metabolism; also recorded: rapidly metabolized
[5]; 10 mg/kg oral
  toxicity after chronic administration: without apparent toxicity
[5]; [8]
  ALP: 53 ± 2.5 U/L
  ALT: 44 ± 6 U/L
  AST: 105 ± 11 U/L
  Albumin: 2.9 ± 0.03 g/dL
  BUN: 18.4 ± 1.2 mg/dL
  Bicarbonate: 16 ± 1.7 mmol/L
  CK: 312 ± 62 U/L
  Calcium: 8.5 ± 0.04 mg/dL
  Chloride: 115 ± 1 mmol/L
  Cholesterol: 121 ± 6 mg/dL
  Creatinine: 0.2 ± 0 mg/dL
  Globulin: 2.2 ± 0.1 g/dL
  Glucose: 164 ± 6 mg/dL
  Hemoglobin: 12.8 ± 0.3 g/dL
  Leukocytes: 1.9 ± 0.5 10^3/μL
  Phosphorus: 6.8 ± 0.3 mg/dL
  Potassium: 4.4 ± 0.1 mmol/L
  Sodium: 151 ± 0.7 mmol/L
  Thrombocytes: 900 ± 48 10^3/μL
  Total bilirubin: 0.1 ± 0 mg/dL
  Total protein: 5.2 ± 0.1 g/dL
[5]; 7-day treated mice
  body weight and airway/lung fluid accumulation: nor did it change body weight or produce airway/lung fluid accumulation
  lung water content: normal lung water content
  serum chemistry and blood parameters, in words: did not affect the major serum chemistry and blood parameters
[6]; 10 mg/kg ip, loperamide-treated mice
  stool weight, pellet number, water content: normalized each of the stool parameters
[6]; 10 mg/kg oral daily for 7 days, loperamide 1 h after final dose
  efficacy after chronic administration: remained effective in normalizing stool output and water content
[6]; CF mice lacking functional CFTR
  effect on stool parameters in cystic fibrosis mice: without effect
[6]; ip, non-loperamide-treated mice
  stool output or water content in control mice: did not affect stool output or water content
[6]; oral 10 mg/kg, control mice
  stool output, oral, control mice: no effect
[6]; oral (10 mg/kg) 1 h before loperamide, 10 mg/kg
  stool output and water content, oral administration: normalized stool output and water content; also recorded: effective in normalizing stool output and water content
[6]; oral, loperamide model
  ED50, oral administration: 0.5 mg/kg

## CNc1nc(Nc2ccccc2)nc(OCC(F)(F)C(F)F)n1 [compound 12, N-methyl-N′-phenyl-6-(2,2,3,3-tetrafluoropropoxy)-1,3,5-triazine-2,4-diamine]
[7]
  chemical stability in ophthalmic vehicle: stable at 100 μM in an ophthalmic vehicle; also recorded: remained chemically stable
